Test results published in ChEMBL document CHEMBL1201862, “PubChem BioAssay data set” (2004).
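Protocol summary: plate cells (96-well), add compound at 5 concentrations, incubate 48 h, interpolate endpoints linearly. Here, GI50 denotes the concentration required for 50% inhibition of growth.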 The source made the active and inactive calls. Rule as the data show it: active = GI50 up to about 1.1 µM and inactive = higher.

Key:
Test in all cases: growth of human tumour cells (NCI), 48 h
NCI/ADR-RES = tested on: NCI/ADR-RES
SK-OV-3 = tested on: SK-OV-3
NCI-H23 = tested on: NCI-H23
UACC-257 = tested on: UACC-257
A549 = tested on: A549
A498 = tested on: A498
HL-60 = tested on: HL-60
SK-MEL-28 = tested on: SK-MEL-28
COLO 205 = tested on: COLO 205
SF-295 = tested on: SF-295
SR = tested on: SR
K562 = tested on: K562
ACHN = tested on: ACHN
PC-3 = tested on: PC-3
SF-539 = tested on: SF-539
EKVX = tested on: EKVX
SN12C = tested on: SN12C
MDA-N = tested on: MDA-N
BT-549 = tested on: BT-549

Measured: GI50

COc1cccc(C2CC(=O)c3cccn32)c1 (stereo not given)
inactive: NCI/ADR-RES > 100 µM | SK-OV-3 > 100 µM | NCI-H23 > 100 µM | UACC-257 > 100 µM | A549 94.6 µM | A498 > 100 µM | HL-60 32.4 µM | SK-MEL-28 > 100 µM | COLO 205 > 100 µM | SF-295 > 100 µM | SR > 100 µM | K562 > 100 µM | ACHN > 100 µM | PC-3 73.3 µM | SF-539 > 100 µM | EKVX > 100 µM | SN12C > 100 µM

CN(C)CCCN1c2ccc([N+](=O)[O-])cc2CCc2cc([N+](=O)[O-])ccc21
inactive: MDA-N 13.8 µM | NCI/ADR-RES 14.3 µM | SK-OV-3 17.2 µM | UACC-257 15.2 µM | A549 17.9 µM | HL-60 13.6 µM | SK-MEL-28 15.3 µM | COLO 205 14.9 µM | SF-295 15.6 µM | K562 19.4 µM | ACHN 11.4 µM | PC-3 16.4 µM | SF-539 15.7 µM | EKVX 14.1 µM | SN12C 15.8 µM

CSc1nc2[nH]c(=O)c(C)nc2c(=O)[nH]1
inactive: SK-OV-3 > 100 µM | NCI-H23 > 100 µM | UACC-257 > 100 µM | A549 > 100 µM | A498 > 100 µM | HL-60 > 100 µM | SK-MEL-28 > 100 µM | COLO 205 > 100 µM | SF-295 > 100 µM | SR > 100 µM | K562 > 100 µM | ACHN > 100 µM | EKVX > 100 µM | SN12C > 100 µM

CCOc1c(Br)cc(Br)cc1C=C(C#N)C#N
active: HL-60 0.227 µM | SR 0.916 µM
inactive: MDA-N 1.83 µM | NCI/ADR-RES 1.27 µM | SK-OV-3 > 10 µM | NCI-H23 > 10 µM | A549 > 10 µM | A498 1.49 µM | SK-MEL-28 8.26 µM | COLO 205 > 10 µM | SF-295 7.53 µM | K562 1.16 µM | ACHN 2.77 µM | PC-3 > 10 µM | SF-539 3.36 µM | EKVX > 10 µM | SN12C 6.27 µM

N=C(N)NCCN1CC2CCC(CC2)C1
inactive: MDA-N 51.9 µM | NCI/ADR-RES > 100 µM | SK-OV-3 > 100 µM | NCI-H23 > 100 µM | UACC-257 > 100 µM | A549 > 100 µM | A498 > 100 µM | SK-MEL-28 > 100 µM | COLO 205 93.1 µM | SF-295 > 100 µM | SR > 100 µM | ACHN > 100 µM | PC-3 44.1 µM | SF-539 > 100 µM | EKVX > 100 µM | SN12C > 100 µM

N#CC1(C#N)NC(c2cccnc2)C(C#N)(C#N)NC1c1cccnc1 (stereo not given)
inactive: MDA-N > 100 µM | NCI/ADR-RES > 100 µM | SK-OV-3 > 100 µM | NCI-H23 > 100 µM | UACC-257 > 100 µM | A549 > 100 µM | A498 > 100 µM | HL-60 > 100 µM | BT-549 > 100 µM | SK-MEL-28 > 100 µM | COLO 205 > 100 µM | SF-295 > 100 µM | K562 > 100 µM | PC-3 > 100 µM | SF-539 > 100 µM | EKVX > 100 µM | SN12C > 100 µM

Oc1c([Si](c2ccccc2)(c2ccccc2)c2ccccc2)cc2ccccc2c1-c1c(O)c([Si](c2ccccc2)(c2ccccc2)c2ccccc2)cc2ccccc12
inactive: MDA-N > 100 µM | NCI/ADR-RES > 100 µM | SK-OV-3 > 100 µM | NCI-H23 > 100 µM | UACC-257 > 100 µM | A549 > 100 µM | A498 > 100 µM | HL-60 > 100 µM | SK-MEL-28 > 100 µM | COLO 205 > 100 µM | SF-295 > 100 µM | SR > 100 µM | K562 34.1 µM | ACHN > 100 µM | PC-3 > 100 µM | SF-539 > 100 µM | EKVX > 100 µM

CNC(=O)CCCNC(=O)CCCCC(=O)N(C)C
inactive: MDA-N > 100 µM | NCI/ADR-RES > 100 µM | SK-OV-3 > 100 µM | NCI-H23 > 100 µM | A549 > 100 µM | A498 > 100 µM | SK-MEL-28 > 100 µM | COLO 205 > 100 µM | SF-295 > 100 µM | K562 > 100 µM | ACHN > 100 µM | PC-3 > 100 µM | SF-539 > 100 µM | SN12C > 100 µM

O=C1N/C(=N/N=C/c2c[nH]c3ccccc23)N/C1=C\c1c[nH]c2ccccc12
inactive: MDA-N 27.6 µM | NCI/ADR-RES 27.3 µM | SK-OV-3 35.9 µM | NCI-H23 18.2 µM | UACC-257 28.5 µM | A549 18.9 µM | A498 12.7 µM | HL-60 18.9 µM | BT-549 20.3 µM | SK-MEL-28 22.1 µM | COLO 205 13.8 µM | SF-295 21.4 µM | K562 14.7 µM | ACHN 21.3 µM | PC-3 15.7 µM | SF-539 22.1 µM | EKVX 25.6 µM | SN12C 34.9 µM

COc1cc(-c2[o+]c3cc(O)cc(OC4OC(CO)C(O)C(O)C4O)c3cc2OC2OC(CO)C(O)C(O)C2O)cc(OC)c1O (stereo not given)
inactive: MDA-N > 100 µM | SK-OV-3 > 100 µM | NCI-H23 > 100 µM | UACC-257 > 100 µM | A549 > 100 µM | A498 > 100 µM | HL-60 21.1 µM | BT-549 > 100 µM | SK-MEL-28 > 100 µM | COLO 205 > 100 µM | SF-295 > 100 µM | SR > 100 µM | K562 > 100 µM | ACHN > 100 µM | PC-3 > 100 µM | SF-539 > 100 µM | EKVX > 100 µM | SN12C > 100 µM

CC(=O)Nc1ccc(/N=N\c2c(O)c(S(=O)(=O)O)cc3cc(S(=O)(=O)O)ccc23)cc1
inactive: MDA-N > 100 µM | NCI/ADR-RES > 100 µM | SK-OV-3 > 100 µM | NCI-H23 > 100 µM | UACC-257 > 100 µM | A549 > 100 µM | BT-549 > 100 µM | SK-MEL-28 > 100 µM | COLO 205 > 100 µM | SF-295 > 100 µM | K562 > 100 µM | ACHN > 100 µM | PC-3 > 100 µM | EKVX > 100 µM | SN12C > 100 µM

CCCc1n[nH]c(=O)n1N1C(=O)C=CC1=O
inactive: MDA-N > 100 µM | SK-OV-3 > 100 µM | NCI-H23 > 100 µM | UACC-257 > 100 µM | A549 > 100 µM | A498 > 100 µM | BT-549 30.5 µM | COLO 205 > 100 µM | SF-295 > 100 µM | SR > 100 µM | K562 > 100 µM | PC-3 > 100 µM | SF-539 > 100 µM | EKVX > 100 µM | SN12C > 100 µM

CC1(C)O[C@@H]([C@H](O)CO)[C@H](O)[C@@H](C2SCCCS2)O1
inactive: NCI/ADR-RES > 100 µM | SK-OV-3 > 100 µM | NCI-H23 > 100 µM | UACC-257 > 100 µM | A549 > 100 µM | A498 59.8 µM | BT-549 > 100 µM | SK-MEL-28 > 100 µM | COLO 205 > 100 µM | SF-295 > 100 µM | SR 23.2 µM | ACHN > 100 µM | PC-3 > 100 µM | SF-539 > 100 µM | EKVX > 100 µM | SN12C > 100 µM

COCc1nc2c(OC)c(-c3nc4ccc(N5CCN(C)CC5)nc4[nH]3)cc(OC)c2n1C
inactive: MDA-N 37.7 µM | NCI/ADR-RES 55 µM | SK-OV-3 66.5 µM | NCI-H23 58.3 µM | UACC-257 17.9 µM | A549 35.7 µM | HL-60 17.4 µM | BT-549 43.7 µM | SK-MEL-28 23.4 µM | COLO 205 8.59 µM | SF-295 32.1 µM | K562 29.3 µM | ACHN 17.5 µM | PC-3 21.2 µM | SF-539 12.3 µM | EKVX 21 µM | SN12C 80 µM

CN(C)CCNC(=O)c1cccc2c(Nc3ccc(S(=O)(=O)N=C(N)N)cc3)c3ccccc3nc12
active: HL-60 0.684 µM
inactive: NCI-H23 29 µM | A549 10.6 µM | SK-MEL-28 24.5 µM | COLO 205 9.04 µM | SF-295 17.3 µM | SR 2.61 µM | K562 11.9 µM | ACHN 22.1 µM | SF-539 11.3 µM | EKVX 20.6 µM | SN12C 5.15 µM

COc1cccc(C2c3cc4c(cc3OC(Nc3ccccc3)C2C)OCO4)c1OC (stereo not given)
active: SR 0.809 µM
inactive: MDA-N 34.8 µM | SK-OV-3 7.59 µM | NCI-H23 42 µM | UACC-257 35.6 µM | A549 6.04 µM | A498 11.5 µM | HL-60 2.1 µM | BT-549 9.12 µM | SK-MEL-28 41.3 µM | COLO 205 4.98 µM | SF-295 5.55 µM | K562 2.64 µM | ACHN 3.94 µM | PC-3 4.47 µM | SF-539 13.2 µM | EKVX 19.8 µM | SN12C 6.4 µM

COC(=O)C1C(=O)O[C@@H](c2ccc(OC)cc2)C1C(=O)OC (stereo not given in full)
inactive: SK-OV-3 > 100 µM | NCI-H23 > 100 µM | UACC-257 > 100 µM | A549 > 100 µM | A498 52.4 µM | SK-MEL-28 > 100 µM | COLO 205 > 100 µM | SF-295 > 100 µM | SR > 100 µM | K562 > 100 µM | ACHN > 100 µM | SF-539 > 100 µM | EKVX > 100 µM | SN12C > 100 µM
